# Reference: patent US11590139B2, “Substituted aminopurine compounds, compositions thereof, and methods of treatment therewith” (Signal Pharmaceuticals, LLC, priority 2014, dated 2023)
# System: Lox-IMVI melanoma cell line
# Test: Lox-IMVI anti-proliferative assay (growth inhibition, Cell Titer-Glo)
# Assay type: cell-based, human
# Settings: Homo sapiens; IC50 activity level in the cell-based Lox-IMVI anti-proliferative assay; read-out: Activity
# Procedure, shortened: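 Viability read by ATP luminescence (Cell Titer-Glo) at t0 and after 72 h at 37 °C, 5% CO2, with normalisation to DMSO-treated cells. Compound tested at 0.5 nM–10 μM in 3-fold, 10-point series (0.2% DMSO final) on Lox-IMVI in RPMI+10% FBS; IC50 by 4-parameter sigmoidal fit.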
row,SMILES,IC50
1,"NC(=O)[C@H]1CC[C@@H](n2c(Nc3c(F)ccc(Cl)c3F)nc3cnc(NC4CC5(COC5)C4)nc32)CC1 [Example 196, (1s,4s)-4-(2-(2-oxaspiro[3.3]heptan-6-ylamino)-8-(3-chloro-2,6-difluorophenylamino)-9H-purin-9-yl)cyclohexanecarboxamide]",> 1000 nM
2,"CC[C@@H](CO)Nc1ncc2nc(Nc3c(F)cc(F)cc3Cl)n([C@H]3CC[C@@H](C(N)=O)CC3)c2n1 [Example 147, (1R,4s)-4-(8-(2-chloro-4,6-difluorophenylamino)-2-((S)-1-hydroxybutan-2-ylamino)-9H-purin-9-yl)cyclohexanecarboxamide]",> 1000 nM
3,"NC(=O)[C@H]1CC[C@@H](n2c(Nc3cc(F)c(F)cc3F)nc3cnc(NC4CCOCC4)nc32)CC1 [Example 58, (1s,4s)-4-(2-(tetrahydro-2H-pyran-4-ylamino)-8-(2,4,5-trifluorophenylamino)-9H-purin-9-yl)cyclohexanecarboxamide]",500 to 1000 nM
4,"CC(C)Nc1ncc2nc(Nc3c(F)ccc(F)c3F)n([C@H]3CC[C@@H](C(N)=O)CC3)c2n1 [Example 98, (1s,4s)-4-(2-(isopropylamino)-8-(2,3,6-trifluorophenylamino)-9H-purin-9-yl)cyclohexanecarboxamide]",> 1000 nM
5,"NC(=O)[C@H]1CC[C@@H](n2c(Nc3c(F)cc(Cl)cc3F)nc3cnc(N[C@H]4CCC[C@@H]4O)nc32)CC1 [Example 269, (1R,4s)-4-(8-(4-chloro-2,6-difluorophenylamino)-2-((1S,2S)-2-hydroxycyclopentylamino)-9H-purin-9-yl)cyclohexanecarboxamide]",> 1000 nM

# Same assay, conditions: Homo sapiens; Lox-IMVI anti-proliferative assay, IC50 activity level; read-out: Activity
row,SMILES,IC50
1,"C[C@@H](CO)Nc1ncc2nc(Nc3c(F)cc(F)cc3Cl)n([C@H]3CC[C@@](C)(C(N)=O)CC3)c2n1 [Example 548, (1R,4s)-4-(8-(2-chloro-4,6-difluorophenylamino)-2-((S)-1-hydroxypropan-2-ylamino)-9H-purin-9-yl)-1-methylcyclohexanecarboxamide]",< 250 nM
2,"CC(CN1CCOCC1)Nc1ncc2nc(Nc3c(Cl)cc(Cl)cc3Cl)n([C@H]3CC[C@@H](C(N)=O)CC3)c2n1 (stereo partly drawn) [Example 531, (1s,4s)-4-(2-(1-morpholinopropan-2-ylamino)-8-(2,4,6-trichlorophenylamino)-9H-purin-9-yl)cyclohexanecarboxamide]",> 1000 nM
3,"NC(=O)[C@H]1CC[C@@H](n2c(Nc3c(F)cc(Cl)cc3F)nc3cnc(N[C@H]4CCCC[C@H]4O)nc32)CC1 [Example 515, (1R,4s)-4-(8-(4-chloro-2,6-difluorophenylamino)-2-((1S,2R)-2-hydroxycyclohexylamino)-9H-purin-9-yl)cyclohexanecarboxamide]",> 1000 nM
4,"C[C@H]1COCC[C@H]1Nc1ncc2nc(Nc3c(F)cc(Cl)cc3F)n([C@H]3CC[C@@H](C(N)=O)CC3)c2n1 [Example 508, (1S,4s)-4-(8-(4-chloro-2,6-difluorophenylamino)-2-((3R,4R)-3-methyltetrahydro-2H-pyran-4-ylamino)-9H-purin-9-yl)cyclohexanecarboxamide]",500 to 1000 nM

# Same assay, conditions: Homo sapiens; Lox-IMVI melanoma cell line, anti-proliferative assay; read-out: Activity (IC50 activity level)
row,SMILES,IC50
1,"CS(=O)(=O)C1CC(Nc2ncc3nc(Nc4c(F)cc(Cl)cc4F)n([C@H]4CC[C@@H](C(N)=O)CC4)c3n2)C1 (stereo partly drawn) [Example 736, (1s,4s)-4-(8-(4-chloro-2,6-difluorophenylamino)-2-(3-(methylsulfonyl)cyclobutylamino)-9H-purin-9-yl)cyclohexanecarboxamide]",> 1000 nM
2,"C[C@]1(C(N)=O)CC[C@@H](n2c(Nc3c(Cl)cc(Cl)cc3Cl)nc3cnc(N[C@H]4CCC[C@@H](O)C4)nc32)CC1 [Example 627, (1R,4s)-4-(2-((1S,3R)-3-hydroxycyclohexylamino)-8-(2,4,6-trichlorophenylamino)-9H-purin-9-yl)-1-methylcyclohexanecarboxamide]",< 250 nM

# Same assay, conditions: Lox-IMVI melanoma cell line, anti-proliferative assay; read-out: Activity (IC50 activity level)
row,SMILES,IC50
1,"C[C@]1(C(N)=O)CC[C@@H](n2c(Nc3c(Cl)cc(F)cc3Cl)nc3cnc(NC4CCC4)nc32)CC1 [Example 606, (1s,4s)-4-(2-(cyclobutylamino)-8-(2,6-dichloro-4-fluorophenylamino)-9H-purin-9-yl)-1-methylcyclohexanecarboxamide]",< 250 nM
